Tested on: CaV2.2 channels (α1B, α2δ1, and β3)
Type: cell-based, rat

## CSCC[C@@H]1NC(=O)[C@H](CC(C)C)NC(=O)[C@H](CCCNC(=N)N)NC(=O)[C@H](CO)NC(=O)[C@@H]2CSSC[C@@H]3NC(=O)[C@H](CO)NC(=O)CNC(=O)[C@H]([C@@H](C)O)NC(=O)[C@H](CSSC[C@H](N)C(=O)N[C@@H](CCCCN)C(=O)NCC(=O)N[C@@H](CCCCN)C(=O)NCC(=O)N[C@@H](C)C(=O)N[C@@H](CCCCN)C(=O)N2)NC(=O)[C@H](CSSC[C@@H](C(N)=O)NC(=O)[C@H](CCCCN)NC(=O)CNC(=O)[C@H](CO)NC(=O)[C@H](CCCNC(=N)N)NC3=O)NC(=O)[C@H](CC(=O)O)NC(=O)[C@H](Cc2ccc(O)cc2)NC1=O [MVIIA, ω-Conotoxin MVIIA]
  Hill slope: 1.296
2 µM
  inhibitory effect on CaV2.2 channel: more than 90%
SEM
  reduction of ICa amplitude: 98.24 ± 0.708%
